Molecular target: T1, human FSH receptor (Homo sapiens, UniProt P23945)
T1 construct: expressed in transfected cells; host or cells: Chinese Hamster Ovary (CHO) cells, stably transfected; cotransfected with CRE/promoter-firefly luciferase reporter
T1 sequence (P23945 18-695): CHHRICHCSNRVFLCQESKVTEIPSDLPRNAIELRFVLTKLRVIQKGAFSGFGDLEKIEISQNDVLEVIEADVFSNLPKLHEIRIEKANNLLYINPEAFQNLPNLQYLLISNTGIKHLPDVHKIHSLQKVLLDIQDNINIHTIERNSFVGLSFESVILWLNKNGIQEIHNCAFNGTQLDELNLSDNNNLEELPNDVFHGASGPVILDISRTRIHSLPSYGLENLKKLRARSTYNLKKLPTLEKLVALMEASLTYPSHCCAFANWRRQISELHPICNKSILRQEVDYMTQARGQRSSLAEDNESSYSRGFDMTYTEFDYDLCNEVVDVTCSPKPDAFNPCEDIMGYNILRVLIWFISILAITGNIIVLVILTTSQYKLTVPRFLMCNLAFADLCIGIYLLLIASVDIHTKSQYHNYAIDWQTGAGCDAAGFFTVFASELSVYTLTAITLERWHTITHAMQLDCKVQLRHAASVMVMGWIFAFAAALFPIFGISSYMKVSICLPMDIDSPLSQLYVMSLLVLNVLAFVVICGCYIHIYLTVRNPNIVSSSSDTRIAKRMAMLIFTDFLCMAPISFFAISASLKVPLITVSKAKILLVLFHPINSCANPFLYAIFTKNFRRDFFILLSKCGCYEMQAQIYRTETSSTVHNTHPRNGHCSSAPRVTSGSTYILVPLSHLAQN
Experiment: Agonistic activity at the human FSH receptor expressed in CHO cells (CRE-luciferase reporter)
Type: cell-based
Conditions: CHO cells stably transfected with the human FSH receptor and a CRE/luciferase reporter, 4 hours of incubation, pEC50 is -logEC50; for EC50: read-out: hFSHRago (CHO luc) pEC50 (converted)
Experimental: For the determination a software program such as MathIQ (version 2.0, ID Business Solutions Limited) can be used.
Agonistic activity of compounds at the human FSH receptor expressed in CHO cells
Agonistic activity of the compounds at the human FSH receptor was determined in Chinese Hamster Ovary (CHO) cells stably transfected with the human FSH receptor and cotransfected with a cAMP responsive element (CRE)/promotor directing the expression of a firefly luciferase reporter gene. […] The final concentration of DMSO was 1%. After 4 hours of incubation, plates were allowed to adjust to room temperature for 1 hour. Then, Luclite (PerkinElmer) solution was added to the wells and cells were allowed to lyse for at least 1 hour at room temperature. Subsequently, luciferase activity was measured in a luminescence counter. The signal is expressed as counts per second (cps).

Compound	hFSHRago (CHO luc) pEC50	EC50
COc1cc2c(cc1-c1cnn(C)c1)-c1c(-c3cccs3)c3c(n1CC2)C(=O)N(C(C)(C)C)CCC3 [4h]	–	64.6 nM
COc1cc2c(cc1-c1cccnc1)-c1c(-c3cccs3)c3c(n1CC2)C(=O)N(C(C)(C)C)CCSC3 [9k, 9-tert-butyl-3-methoxy-2-pyridin-3-yl-14-(2-thienyl)-5,6,10,11,13,13a-hexahydro-7aH-[1,4]thiazocino[7',6':4,5]pyrrolo[2,1-a]isoquinolin-8(9H)-one]	–	0.316 nM
COc1cc2c(cc1[C@@H](O)[C@H](O)CO)-c1c(-c3cccs3)c3c(n1CC2)C(=O)N(C(C)(C)C)CCCC3 [21i]	–	5.25 nM

Now from value to compound:

hFSHRago (CHO luc) pEC50	EC50	Compound
8.51	–	9-tert-butyl-3-methoxy-2-pyridin-3-yl-14-(1,3-thiazol-5-yl)-5,6,10,11,12,13-hexahydroazocino[4',3':4,5]pyrrolo[2,1-a]isoquinolin-8(9H)-one [11j]
–	13.8 nM	COc1cc2c(cc1-c1cnccn1)-c1c(-c3cccs3)c3c(n1CC2)C(=O)N(C(C)(C)C)CCC3 [4i, 9-tert-butyl-2-(pyrazin-2-yl)-3-methoxy-13-(2-thienyl)-5,6,9,10,11,12-hexahydro-8H-azepino[4',3':4,5]pyrrolo[2,1-a]isoquinolin-8-one]
